Source: PubChem BioAssay (NCI)
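Cultured in 96-well plates, cells were exposed to test compound for 48 hours across five concentrations. At the TGI there is no net growth.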

Assays:
Assay in all cases: NCI-60 cell line screen, 48 h
786-0 renal = system: 786-0 renal
A498 renal = system: A498 renal
A549 NSCLC = system: A549 NSCLC
ACHN renal = system: ACHN renal
BT-549 breast = system: BT-549 breast
CCRF-CEM leukemia = system: CCRF-CEM leukemia
DU-145 prostate = system: DU-145 prostate
EKVX NSCLC = system: EKVX NSCLC
HCT-116 colon = system: HCT-116 colon
HCT-15 colon = system: HCT-15 colon
HL-60(TB) leukemia = system: HL-60(TB) leukemia
HOP-62 NSCLC = system: HOP-62 NSCLC
HOP-92 NSCLC = system: HOP-92 NSCLC
HS 578T breast = system: HS 578T breast
HT29 colon = system: HT29 colon
IGROV1 ovarian = system: IGROV1 ovarian
K-562 leukemia = system: K-562 leukemia
KM12 colon = system: KM12 colon
M14 melanoma = system: M14 melanoma
MALME-3M melanoma = system: MALME-3M melanoma
MCF7 breast = system: MCF7 breast
MDA-MB-231 breast = system: MDA-MB-231 breast
MDA-MB-435 = system: MDA-MB-435
MDA-N = system: MDA-N
MOLT-4 leukemia = system: MOLT-4 leukemia
NCI-H226 lung = system: NCI-H226 lung
NCI-H23 lung = system: NCI-H23 lung
NCI-H460 lung = system: NCI-H460 lung
NCI-H522 lung = system: NCI-H522 lung
OVCAR-3 ovarian = system: OVCAR-3 ovarian
OVCAR-4 ovarian = system: OVCAR-4 ovarian
OVCAR-5 ovarian = system: OVCAR-5 ovarian
OVCAR-8 ovarian = system: OVCAR-8 ovarian
PC-3 prostate = system: PC-3 prostate
RPMI-8226 leukemia = system: RPMI-8226 leukemia
RXF 393 renal = system: RXF 393 renal
SF-295 CNS = system: SF-295 CNS
SK-MEL-2 melanoma = system: SK-MEL-2 melanoma
SK-MEL-28 melanoma = system: SK-MEL-28 melanoma
SN12C renal = system: SN12C renal
SNB-19 CNS = system: SNB-19 CNS
SNB-75 CNS = system: SNB-75 CNS
SR leukemia = system: SR leukemia
SW-620 colon = system: SW-620 colon
TK-10 renal = system: TK-10 renal
U251 CNS = system: U251 CNS
UACC-257 melanoma = system: UACC-257 melanoma
UACC-62 melanoma = system: UACC-62 melanoma
UO-31 renal = system: UO-31 renal
CAKI-1 renal = system: CAKI-1 renal
COLO 205 colon = system: COLO 205 colon
HCC-2998 colon = system: HCC-2998 colon
LOX IMVI melanoma = system: LOX IMVI melanoma
SF-268 CNS = system: SF-268 CNS
SK-MEL-5 melanoma = system: SK-MEL-5 melanoma
SK-OV-3 ovarian = system: SK-OV-3 ovarian
T-47D breast = system: T-47D breast

For `COc1ccc(O)c(C=NCCCN=Cc2cc(OC)ccc2O)c1`, the TGI (786-0 renal) was over 100 µM, the TGI (A498 renal) was over 100 µM and the TGI (A549 NSCLC) was over 100 µM. It also gave a TGI (ACHN renal) of 74.4 µM, a TGI (BT-549 breast) of over 100 µM and a TGI (CCRF-CEM leukemia) of 83.5 µM. For the same compound, the TGI (DU-145 prostate) was 80.5 µM, the TGI (EKVX NSCLC) was 83 µM and the TGI (HCT-116 colon) was over 100 µM. For the same compound, the TGI (HCT-15 colon) was 93.1 µM, the TGI (HL-60(TB) leukemia) was 28.5 µM and the TGI (HOP-62 NSCLC) was over 100 µM. For the same compound, the TGI (HOP-92 NSCLC) was 65 µM, the TGI (HS 578T breast) was 68 µM and the TGI (HT29 colon) was over 100 µM. The TGI (IGROV1 ovarian) was over 100 µM, the TGI (K-562 leukemia) was over 100 µM and the TGI (KM12 colon) was 64.6 µM. It also gave a TGI (M14 melanoma) of over 100 µM, a TGI (MALME-3M melanoma) of 62.7 µM and a TGI (MCF7 breast) of 56.9 µM. The TGI (MDA-MB-231 breast) was over 100 µM, the TGI (MDA-MB-435) was 86.4 µM and the TGI (MDA-N) was over 100 µM. The TGI (MOLT-4 leukemia) was over 100 µM, the TGI (NCI-H226 lung) was 73.2 µM and the TGI (NCI-H23 lung) was over 100 µM. It also gave a TGI (NCI-H460 lung) of over 100 µM, a TGI (NCI-H522 lung) of over 100 µM and a TGI (OVCAR-3 ovarian) of 37.3 µM. The TGI (OVCAR-4 ovarian) was over 100 µM, the TGI (OVCAR-5 ovarian) was over 100 µM and the TGI (OVCAR-8 ovarian) was 69.9 µM. For the same compound, the TGI (PC-3 prostate) was over 100 µM, the TGI (RPMI-8226 leukemia) was 74.7 µM and the TGI (RXF 393 renal) was 95.2 µM. The TGI (SF-295 CNS) was 51.1 µM, the TGI (SK-MEL-2 melanoma) was over 100 µM and the TGI (SK-MEL-28 melanoma) was over 100 µM. For the same compound, the TGI (SN12C renal) was 83.5 µM, the TGI (SNB-19 CNS) was over 100 µM and the TGI (SNB-75 CNS) was 64.7 µM. The TGI (SR leukemia) was over 100 µM, the TGI (SW-620 colon) was over 100 µM and the TGI (TK-10 renal) was over 100 µM. For the same compound, the TGI (U251 CNS) was 56.9 µM, the TGI (UACC-257 melanoma) was 69.5 µM and the TGI (UACC-62 melanoma) was 84.5 µM. The TGI (UO-31 renal) was over 100 µM.
With `COc1cccc(/C=C2\CCCCCC2=O)c1` the TGI (786-0 renal) was over 100 µM, the TGI (A498 renal) was over 100 µM and the TGI (A549 NSCLC) was over 100 µM. For the same compound, the TGI (ACHN renal) was over 100 µM, the TGI (BT-549 breast) was over 100 µM and the TGI (CAKI-1 renal) was over 100 µM. The TGI (COLO 205 colon) was over 100 µM, the TGI (DU-145 prostate) was over 100 µM and the TGI (EKVX NSCLC) was over 100 µM. The TGI (HCC-2998 colon) was over 100 µM, the TGI (HCT-116 colon) was over 100 µM and the TGI (HCT-15 colon) was over 100 µM. It also gave a TGI (HOP-62 NSCLC) of over 100 µM, a TGI (HOP-92 NSCLC) of over 100 µM and a TGI (HS 578T breast) of over 100 µM. It also gave a TGI (HT29 colon) of over 100 µM, a TGI (IGROV1 ovarian) of over 100 µM and a TGI (K-562 leukemia) of over 100 µM. For the same compound, the TGI (KM12 colon) was over 100 µM, the TGI (LOX IMVI melanoma) was over 100 µM and the TGI (M14 melanoma) was over 100 µM. It also gave a TGI (MALME-3M melanoma) of over 100 µM, a TGI (MDA-MB-231 breast) of over 100 µM and a TGI (MDA-MB-435) of over 100 µM. It also gave a TGI (MDA-N) of over 100 µM, a TGI (MOLT-4 leukemia) of over 100 µM and a TGI (NCI-H226 lung) of over 100 µM. For the same compound, the TGI (NCI-H23 lung) was over 100 µM, the TGI (NCI-H460 lung) was over 100 µM and the TGI (NCI-H522 lung) was over 100 µM. The TGI (OVCAR-3 ovarian) was over 100 µM, the TGI (OVCAR-4 ovarian) was over 100 µM and the TGI (OVCAR-5 ovarian) was over 100 µM. The TGI (PC-3 prostate) was over 100 µM, the TGI (RPMI-8226 leukemia) was over 100 µM and the TGI (SF-268 CNS) was over 100 µM. The TGI (SF-295 CNS) was over 100 µM, the TGI (SK-MEL-2 melanoma) was over 100 µM and the TGI (SK-MEL-28 melanoma) was over 100 µM. It also gave a TGI (SK-MEL-5 melanoma) of over 100 µM, a TGI (SK-OV-3 ovarian) of over 100 µM and a TGI (SN12C renal) of over 100 µM. For the same compound, the TGI (SNB-19 CNS) was over 100 µM, the TGI (SNB-75 CNS) was over 100 µM and the TGI (SR leukemia) was over 100 µM. It also gave a TGI (SW-620 colon) of over 100 µM, a TGI (T-47D breast) of over 100 µM and a TGI (TK-10 renal) of over 100 µM. For the same compound, the TGI (U251 CNS) was over 100 µM, the TGI (UACC-257 melanoma) was over 100 µM and the TGI (UACC-62 melanoma) was over 100 µM. It also gave a TGI (UO-31 renal) of over 100 µM.
